Laboratory results reported in PMC6934184, “Selective DNA-PKcs inhibition extends the therapeutic index of localized radiotherapy and chemotherapy” (The Journal of Clinical Investigation, 2019).

Biological target: T1, CDK3/cyclin E1 (Homo sapiens, UniProt Q00526)
T1 construct: purchased Thermo Fisher Scientific (Life Technologies) SelectScreen
Assay: SelectScreen LanthaScreen
Type: binding
Conditions: 1 µM
Procedure, shortened: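 Percent values come from Thermo SelectScreen profiling of NU5455, combining activity and binding assays. CSF1R was run in Z'LYTE format at Km app ATP, and CAMK1 in Adapta format with ATP listed at 10.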

T1 sequence (Q00526 whole entry): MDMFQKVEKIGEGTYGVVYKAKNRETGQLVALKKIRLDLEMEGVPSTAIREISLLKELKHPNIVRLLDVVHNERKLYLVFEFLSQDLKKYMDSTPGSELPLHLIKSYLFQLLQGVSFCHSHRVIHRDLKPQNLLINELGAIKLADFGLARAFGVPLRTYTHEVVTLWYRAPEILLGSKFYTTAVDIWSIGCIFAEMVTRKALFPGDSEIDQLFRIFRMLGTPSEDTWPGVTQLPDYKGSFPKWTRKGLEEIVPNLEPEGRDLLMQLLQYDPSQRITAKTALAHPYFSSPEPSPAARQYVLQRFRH
T1 sequence (P24864 whole entry partner): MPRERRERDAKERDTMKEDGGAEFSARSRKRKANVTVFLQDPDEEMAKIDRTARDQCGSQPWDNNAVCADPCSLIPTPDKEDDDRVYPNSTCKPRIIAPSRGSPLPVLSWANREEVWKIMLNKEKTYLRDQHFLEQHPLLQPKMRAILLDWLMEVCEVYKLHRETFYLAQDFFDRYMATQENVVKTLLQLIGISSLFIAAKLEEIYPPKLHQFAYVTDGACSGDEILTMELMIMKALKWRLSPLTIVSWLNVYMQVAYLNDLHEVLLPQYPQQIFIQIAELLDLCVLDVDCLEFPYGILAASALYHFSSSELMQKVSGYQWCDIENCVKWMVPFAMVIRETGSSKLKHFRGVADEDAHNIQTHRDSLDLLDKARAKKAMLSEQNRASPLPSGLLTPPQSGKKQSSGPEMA

SMILES: CN(C(=O)CN1CCOCC1)c1ccc2sc3c(-c4cccc5c(=O)cc(N6CC7CCC(C6)O7)oc45)cccc3c2c1 [NU5455]
- % displacement: 1.9%
